Measured values from ChEMBL document CHEMBL1201862, “PubChem BioAssay data set” (2004).
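How tested: cells in 96-well plates exposed to compound for 48 hours at five concentrations. Here, GI50 denotes the concentration required for 50% inhibition of growth.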 Active and inactive are the calls of the source. Rule as the data show it: active = GI50 up to about 1.1 µM and inactive = higher.

Key:
Experiment in all cases: growth of human tumour cells (NCI), 48 h
[1] = test system: DLD-1
[2] = test system: Malme-3M
[3] = test system: CAKI-1
[4] = test system: HOP-92
[5] = test system: SK-MEL-2
[6] = test system: NCI-H460
[7] = test system: UACC-257
[8] = test system: U-251
[9] = test system: HCC 2998
[10] = test system: UACC-62
[11] = test system: SR
[12] = test system: A549
[13] = test system: COLO 205
[14] = test system: OVCAR-3
[15] = test system: A498
[16] = test system: OVCAR-8
[17] = test system: KM-20L2
[18] = test system: CCRF-CEM
[19] = test system: OVCAR-5
[20] = test system: XF498
[21] = test system: DMS-273
[22] = test system: ACHN
[23] = test system: HCT-15
[24] = test system: SK-MEL-5
[25] = test system: RXF 393
[26] = test system: SW-620
[27] = test system: DMS-114
[28] = test system: SNB-19
[29] = test system: IGROV-1
[30] = test system: SNB-78
[31] = test system: SF-295
[32] = test system: MOLT-4
[33] = test system: SK-OV-3
[34] = test system: RPMI-8226
[35] = test system: SF-539
[36] = test system: HOP-62
[37] = test system: K562
[38] = test system: KM12
[39] = test system: LXFL 529
[40] = test system: SF-268
[41] = test system: SN12C
[42] = test system: NCI-H23
[43] = test system: EKVX
[44] = test system: M14
[45] = test system: HL-60
[46] = test system: HCT-116
[47] = test system: SNB-75
[48] = test system: HT-29
[49] = test system: NCI-H522
[50] = test system: SK-MEL-28
[51] = test system: TK-10
[52] = test system: OVCAR-4
[53] = test system: UO-31
[54] = test system: 786-0
[55] = test system: LOX IMVI
[56] = test system: NCI-H226
[57] = test system: HOP-18
[58] = test system: M19-MEL

`CC(C)(C)C(=O)OCC1OC(N=[N+]=[N-])C(OC(=O)C(C)(C)C)C(OC(=O)C(C)(C)C)C1OC(=O)C(C)(C)C` (stereo not given) was tested, and the GI50 [1] was > 100 µM (inactive), the GI50 [2] was > 100 µM (inactive) and the GI50 [3] was > 100 µM (inactive). For the same compound, the GI50 [4] was > 100 µM (inactive), the GI50 [5] was > 100 µM (inactive) and the GI50 [6] was > 100 µM (inactive). For the same compound, the GI50 [7] was 82.2 µM (inactive), the GI50 [8] was > 100 µM (inactive) and the GI50 [9] was > 100 µM (inactive). For the same compound, the GI50 [10] was > 100 µM (inactive), the GI50 [11] was > 100 µM (inactive) and the GI50 [12] was > 100 µM (inactive). For the same compound, the GI50 [13] was > 100 µM (inactive), the GI50 [14] was > 100 µM (inactive) and the GI50 [15] was > 100 µM (inactive). For the same compound, the GI50 [16] was > 100 µM (inactive), the GI50 [17] was > 100 µM (inactive) and the GI50 [18] was > 100 µM (inactive). For the same compound, the GI50 [19] was > 100 µM (inactive), the GI50 [20] was > 100 µM (inactive) and the GI50 [21] was > 100 µM (inactive). The GI50 [22] was > 100 µM (inactive), the GI50 [23] was > 100 µM and the GI50 [24] was > 100 µM (inactive). The GI50 [25] was > 100 µM (inactive), the GI50 [26] was > 100 µM (inactive) and the GI50 [27] was > 100 µM (inactive). For the same compound, the GI50 [28] was > 100 µM (inactive), the GI50 [29] was > 100 µM (inactive) and the GI50 [30] was > 100 µM (inactive). For the same compound, the GI50 [31] was > 100 µM (inactive), the GI50 [32] was > 100 µM (inactive) and the GI50 [33] was > 100 µM (inactive). The GI50 [34] was > 100 µM (inactive), the GI50 [35] was > 100 µM (inactive) and the GI50 [36] was > 100 µM (inactive). The GI50 [37] was > 100 µM (inactive), the GI50 [38] was > 100 µM (inactive) and the GI50 [39] was > 100 µM (inactive). For the same compound, the GI50 [40] was > 100 µM (inactive), the GI50 [41] was > 100 µM (inactive) and the GI50 [42] was > 100 µM (inactive). The GI50 [43] was > 100 µM (inactive), the GI50 [44] was > 100 µM (inactive) and the GI50 [45] was 58.6 µM (inactive). For the same compound, the GI50 [46] was > 100 µM (inactive), the GI50 [47] was > 100 µM (inactive) and the GI50 [48] was > 100 µM (inactive). The GI50 [49] was > 100 µM (inactive), the GI50 [50] was > 100 µM (inactive) and the GI50 [51] was > 100 µM (inactive). For the same compound, the GI50 [52] was > 100 µM (inactive) and the GI50 [53] was > 100 µM (inactive).

For `CSCCOC(=O)C(=[N+]=[N-])c1ccc([N+](=O)[O-])cc1`, the GI50 [1] was > 100 µM (inactive), the GI50 [54] was > 100 µM (inactive) and the GI50 [2] was > 100 µM (inactive). For the same compound, the GI50 [3] was > 100 µM (inactive), the GI50 [5] was > 100 µM (inactive) and the GI50 [6] was > 100 µM (inactive). The GI50 [7] was > 100 µM (inactive), the GI50 [8] was > 100 µM (inactive) and the GI50 [9] was > 100 µM (inactive). For the same compound, the GI50 [11] was > 100 µM (inactive), the GI50 [12] was > 100 µM (inactive) and the GI50 [13] was > 100 µM (inactive). For the same compound, the GI50 [14] was > 100 µM (inactive), the GI50 [16] was > 100 µM (inactive) and the GI50 [17] was > 100 µM (inactive). The GI50 [18] was > 100 µM (inactive), the GI50 [19] was > 100 µM (inactive) and the GI50 [20] was > 100 µM (inactive). For the same compound, the GI50 [21] was > 100 µM (inactive), the GI50 [22] was > 100 µM (inactive) and the GI50 [23] was > 100 µM. The GI50 [25] was > 100 µM (inactive), the GI50 [26] was > 100 µM (inactive) and the GI50 [27] was > 100 µM (inactive). For the same compound, the GI50 [28] was > 100 µM (inactive), the GI50 [29] was > 100 µM (inactive) and the GI50 [31] was > 100 µM (inactive). The GI50 [32] was > 100 µM (inactive), the GI50 [33] was > 100 µM (inactive) and the GI50 [34] was > 100 µM (inactive). For the same compound, the GI50 [35] was > 100 µM (inactive), the GI50 [36] was > 100 µM (inactive) and the GI50 [37] was > 100 µM (inactive). For the same compound, the GI50 [38] was > 100 µM (inactive), the GI50 [39] was > 100 µM (inactive) and the GI50 [40] was > 100 µM (inactive). For the same compound, the GI50 [41] was > 100 µM (inactive), the GI50 [42] was > 100 µM (inactive) and the GI50 [43] was > 100 µM (inactive). For the same compound, the GI50 [44] was > 100 µM (inactive), the GI50 [45] was > 100 µM (inactive) and the GI50 [46] was > 100 µM (inactive). The GI50 [55] was > 100 µM (inactive), the GI50 [47] was > 100 µM (inactive) and the GI50 [48] was > 100 µM (inactive). For the same compound, the GI50 [49] was > 100 µM (inactive), the GI50 [50] was > 100 µM (inactive) and the GI50 [51] was > 100 µM (inactive). For the same compound, the GI50 [52] was > 100 µM (inactive), the GI50 [56] was > 100 µM (inactive) and the GI50 [53] was > 100 µM (inactive).

With `N/N=C(/Cc1nc2ccc(C(=O)c3ccccc3)cc2nc1O)C(=O)Nc1ccc([N+](=O)[O-])cc1[N+](=O)[O-]` the GI50 [54] was 71.9 µM (inactive), the GI50 [2] was > 100 µM (inactive) and the GI50 [3] was > 100 µM (inactive). For the same compound, the GI50 [4] was > 10 µM (inactive), the GI50 [5] was > 10 µM (inactive) and the GI50 [6] was > 10 µM (inactive). For the same compound, the GI50 [7] was > 100 µM (inactive), the GI50 [8] was > 10 µM (inactive) and the GI50 [9] was > 10 µM (inactive). For the same compound, the GI50 [10] was 49 µM (inactive), the GI50 [11] was > 10 µM (inactive) and the GI50 [12] was > 10 µM (inactive). The GI50 [13] was > 10 µM (inactive), the GI50 [14] was > 10 µM (inactive) and the GI50 [15] was > 10 µM (inactive). For the same compound, the GI50 [16] was 81.8 µM (inactive), the GI50 [17] was > 100 µM (inactive) and the GI50 [18] was > 10 µM (inactive). For the same compound, the GI50 [19] was > 10 µM (inactive), the GI50 [57] was 35.5 µM (inactive) and the GI50 [20] was 8.07 µM (inactive). For the same compound, the GI50 [21] was > 10 µM (inactive), the GI50 [22] was > 10 µM (inactive) and the GI50 [23] was > 10 µM. For the same compound, the GI50 [24] was 86.7 µM (inactive), the GI50 [25] was > 100 µM (inactive) and the GI50 [26] was > 100 µM (inactive). For the same compound, the GI50 [27] was > 10 µM (inactive), the GI50 [28] was > 100 µM (inactive) and the GI50 [29] was > 10 µM (inactive). For the same compound, the GI50 [30] was > 10 µM (inactive), the GI50 [31] was > 10 µM (inactive) and the GI50 [58] was > 10 µM (inactive). For the same compound, the GI50 [32] was > 10 µM (inactive), the GI50 [33] was 55.7 µM (inactive) and the GI50 [34] was > 10 µM (inactive). For the same compound, the GI50 [35] was > 100 µM (inactive), the GI50 [37] was > 10 µM (inactive) and the GI50 [38] was > 100 µM (inactive). For the same compound, the GI50 [39] was > 10 µM (inactive), the GI50 [40] was > 10 µM (inactive) and the GI50 [41] was > 10 µM (inactive). For the same compound, the GI50 [42] was > 10 µM (inactive), the GI50 [43] was > 100 µM (inactive) and the GI50 [44] was > 10 µM (inactive). For the same compound, the GI50 [45] was > 10 µM (inactive), the GI50 [46] was > 10 µM (inactive) and the GI50 [55] was > 10 µM (inactive). For the same compound, the GI50 [47] was > 10 µM (inactive), the GI50 [48] was > 10 µM (inactive) and the GI50 [49] was > 10 µM (inactive). For the same compound, the GI50 [50] was > 10 µM (inactive), the GI50 [51] was > 100 µM (inactive) and the GI50 [52] was 27.3 µM (inactive). For the same compound, the GI50 [56] was > 10 µM (inactive) and the GI50 [53] was 68.2 µM (inactive).
